Results reported in US9289421B2, “Methods and compositions for reducing serum levels of immunoglobulin E (IgE)” (priority 2011, dated 2016).
Entries after “also recorded” stand apart in the source; their conditions may differ.

Tests used:
[1] = test system: serum levels of total IgE; assay: Total serum IgE by ELISA, OVA/ALUM sensitization and boost in BALB/c mice; assay type: in vivo; settings: for IgE levels: THC- or LPI-pretreated B/c mice, OVA/Alum
Procedure: (§1) In in vivo IgE-induction models using OVA/Alum or KLH/Ribi, the role of GPR55, in cannabinoid effects on antibody production has been investigated. BALB/c (B/c), C57BL/6 (B6), or B6 CB2 deficient (CB2^−/−) mice were pretreated with THC or L-α-lysophosphatidylinositol (LPI) prior to injections with OVA/Alum or KLH/Ribi, followed by boosting with same antigens. The mice were then bled on various days after boosting and total serum IgE was determined.
Mice were pretreated with SR2/Gp1a, Gp1a, or not pretreated, and 18 hrs later were sensitized with OVA/ALUM followed by a boost with same antigen. The sera were collected 6 days after the antigen boost injection and ELISAs were performed for IgE. Data represent sera from 4-8 mice/group+/−SEM. *=p≦0.05 from Normal; #=p≦0.05 from OVA/ALUM or SR2/OVA/ALUM.

[2] = test system: serum levels of total IgE; assay: Total serum IgE by ELISA, OVA/ALUM sensitization and boost in C57BL/6 and CB2-/- mice; assay type: in vivo, C57BL/6 (B6) and CB2-/- mice; settings: for serum levels of total IgE: THC pretreatment
Procedure: FIG. 4 is a graph illustrating that serum levels of total IgE were increased with THC pretreatment over C57BL/6 (B6) mice; CB2 deficient mice (CB2^−/−) over B6; and THC pretreatment CB2^−/− over B6 and THC/B6. SR141716A (SR1; CB1 antagonist) pretreatment of CB2^−/− had little effect on total IgE levels. The mice were treated OVA/ALUM following a boost of same antigen. The sera were collected at Day 5-6 after the boost and ELISAs were performed. Data represent serum from individual mice (4-9 mice/group+/−SEM). *=p≦0.05 from Normal; #=p≦0.05 from OVA/ALUM; ##=p<0.05 from THC/OVA/ALUM
as §1

total serum IgE [3] = assay: Total serum IgE, KLH/Ribi IgE-induction model in BALB/c mice; assay type: in vivo; settings: THC-treated B/c mice
Procedure: as §1

total serum IgE [4] = assay: Total serum IgE, KLH/RIBI IgE-induction model in B6 and CB2-/- mice; assay type: in vivo, C57BL/6 (B6) and CB2-/- mice; settings: compared with OVA/ALUM
Procedure: as §1

Cc1ccc2c(c1)Cc1c(C(=O)NN3CCCCC3)nn(-c3ccc(Cl)cc3Cl)c1-2 [Gp1a, N-(Piperidin-1-yl)-1-(2,4-dichlorophenyl)-1,4-dihydro-6-methylindeno[1,2-c]pyrazole-3-carboxamide]
serum levels of total IgE ([1]; BALB/c mice, pretreated 18 hrs before OVA/ALUM, sera 6 days after boost): attenuates; also recorded: caused a decrease in IgE

Cc1c(C(=O)NN2CCCCC2)nn(-c2ccc(Cl)cc2Cl)c1-c1ccc(Cl)cc1 [SR141716A]
IgE response ([2]; B6 and CB2-/- mice, CB1 antagonist given prior to THC dosing): only slightly elevated | total IgE levels ([2]; CB2-/- mice, SR1 pretreatment, OVA/ALUM): little effect

Cc1ccc(Cn2nc(C(=O)N[C@@H]3C(C)(C)[C@@H]4CC[C@@]3(C)C4)cc2-c2ccc(Cl)c(C)c2)cc1 [SR144528, 5-(4-chloro-3-methylphenyl)-1-[(4-methylphenyl)methyl]-N-[(1S,2S,4R)-1,3,3-trimethylbicyclo[2.2.1]hept-2-yl]-1H-pyrazole-3-carboxamide]
effect on the Gp1a attenuation of serum total IgE ([1]; BALB/c mice, co-treatment with Gp1a (SR2/Gp1a), OVA/ALUM): reversed; also recorded: reverses the Gp1a effect

CCCCCc1cc(O)c2c(c1)OC(C)(C)[C@@H]1CCC(C)=C[C@@H]21 [THC, Δ^9-tetrahydrocannabinol]
IgE levels [1]: elevated | serum levels of total IgE ([2]; C57BL/6 (B6) mice, OVA/ALUM, sera Day 5-6 after boost): increased | serum levels of total IgE ([2]; CB2-/- mice, OVA/ALUM, vs B6 and THC/B6): increased; also recorded: augmented this effect | IgE levels (total serum IgE [3]): elevated | IgE levels (total serum IgE [4]): increased IgE levels greater than OVA/ALUM

L-α-lysophosphatidylinositol [LPI]
IgE levels [1]: enhanced
